Key:
Assay type in all cases: in vivo
[1] = system: Tefranychus urticae Koch eggs; assay: Mite ovicide test (MIOV); settings: 1000 ppm spray to run off on cowpea leaves; unhatched eggs read nine days following treatment
Description: (§1) Stock solutions of each of the compounds were prepared at 1000 ppm by dissolving 0.08 gram of each compound to be tested in 8 mL of acetone and adding 72 mL of distilled water plus 3 drops of ethoxylated sorbitan monolaurate, a wetting agent. […] For each example that follows, these stock solutions were used and the specified dilutions made. All the tests discussed below, which involved treatment with compounds of this invention, were always repeated with controls to permit a comparison upon which the percent control was calculated. One day before treatment of cowpea primary leaves with the test solutions, a “FIG. 8” configuration of tree tanglefoot was applied to each of two cowpea primary leaves, one from each of two plants in a pot. In each “Figure”, the circle nearer the stem was designated for the mite ovicide test and the circle farther from the stem was designated for the mite adulticide test. Groups of adult mites (Tefranychus urticae Koch) were transferred into ovicide circles one day before treatment and the females were allowed to deposit eggs until one hour before treatment, at which point all the adults were removed. The plants were then sprayed to run off with each 1000 ppm stock solution of Example 2. One day following treatment of the plants with the test solution, groups of approximately 25 adult mites were transferred into the adulticide rings. Five days later, these rings were examined for live mites remaining on the leaves. The percent control was estimated based on the number of mites surviving on the control plants. Nine days following treatment the ovicide rings were examined for unhatched eggs and living immature mites. The percent control was estimated based on the number of unhatched eggs.

[2] = system: Helicoverpa virescens larva; assay: Tobacco budworm test (TB); settings: 0.2 mL of 1000 ppm stock solution on diet cell surface; second instar larva; after 14 days; corrected by Abbott's formula
Description: (§2) Stock solutions of each of the compounds were prepared at 1000 ppm by dissolving 0.08 gram of each compound to be tested in 8 mL of acetone and adding 72 mL of distilled water plus 3 drops of ethoxylated sorbitan monolaurate, a wetting agent. […] For each example that follows, these stock solutions were used and the specified dilutions made. All the tests discussed below, which involved treatment with compounds of this invention, were always repeated with controls to permit a comparison upon which the percent control was calculated.
For each compound tested, 0.2 mL of each stock solution of Example 2 was pipetted onto the surfaces of each of five diet cells, allowed to spread over the surfaces, and air dried for two hours. Then, a second instar Helicoverpa virescens larva was introduced into each cell. After 14 days, the number of living larvae was determined for each treatment and percent control, corrected by Abbott's formula (J. Econ. Entomology (1925, 265-267), was calculated. The results of the testing of tobacco budworms (TB) are presented in Table 2.

[3] = system: rice delphacids, Sogatodes orizicola; assay: Rice planthopper foliar test (RPH); settings: 1000 ppm spray on rice seedlings; adults added 1 day after treatment, counted five days after transferring
Description: as §2
One thousand ppm of each stock solution of Example 2 was used for this test. One pot containing approximately 20 rice seedlings was treated with each formulation by spraying with a spray atomizer. One day after treatment, plants were covered with a tubular cage and 20 adult rice delphacids, Sogatodes orizicola, were transferred into each cage. Five days after transferring, counts were made of the surviving planthoppers in each pot and percent control was estimated.

[4] = system: Southern Corn Rootworm (Diabrotica undecimpuncatat); assay: Southern corn rootworm test (CR); settings: 100 ppm test solution, corn seedlings on filter paper; second instar larvae; after five days; corrected by Abbott's formula
Description: Stock solutions of each of the compounds were prepared at 1000 ppm by dissolving 0.08 gram of each compound to be tested in 8 mL of acetone and adding 72 mL of distilled water plus 3 drops of ethoxylated sorbitan monolaurate, a wetting agent. […] For each example that follows, these stock solutions were used and the specified dilutions made. All the tests discussed below, which involved treatment with compounds of this invention, were always repeated with controls to permit a comparison upon which the percent control was calculated. One thousand ppm of each stock solution of Example 2 was diluted to 100 ppm (the “test solution”). For each compound, 2.5 mL of each test solution was pipetted onto a filter paper (Whatman #3) at the bottom of a 100 mm petri dish. Two corn seedlings were soaked in the 100 ppm solution for one hour and transferred to the petri dish containing the same test solution. After 24 hours, each dish was loaded with 5 second instar larvae of Southern Corn Rootworm (Diabrotica undecimpuncatat). After five days, the number of live larvae was noted and the percent control, corrected by Abbott's formula, was calculated.

Tefranychus urticae Koch = assay: Mite adulticide test (MI); settings: 1000 ppm spray to run off on cowpea leaves; adult mites added 1 day after treatment, read five days later
Description: as §1

[5] = system: root knot nematode (Meloidogmne incognita); assay: Nematode test (NE); settings: soil drench, soil concentration of 50 ppm; tomato seedling roots evaluated for galls nineteen days after planting
Description: Stock solutions of each of the compounds were prepared at 1000 ppm by dissolving 0.08 gram of each compound to be tested in 8 mL of acetone and adding 72 mL of distilled water plus 3 drops of ethoxylated sorbitan monolaurate, a wetting agent. […] For each example that follows, these stock solutions were used and the specified dilutions made. All the tests discussed below, which involved treatment with compounds of this invention, were always repeated with controls to permit a comparison upon which the percent control was calculated. One thousand ppm of each stock solution of Example 2 was used for this test. For each test solution, 25 mL was drenched onto separate 500 gram samples of soil infested with root knot nematode (Meloidogmne incognita) eggs in a pot, for a soil concentration of 50 ppm. One day after treatment, two tomato seedlings were planted in each pot. Nineteen days after planting, the roots were evaluated for the presence of knots or galls, and the percent control was estimated on the infestation levels in check plants.

| SMILES | Percent Control MIOV [1] [%] | Percent Control TB [2] [%] | Percent Control RPH [3] [%] | Percent Control CR [4] [%] | Percent Control MI (Tefranychus urticae Koch) [%] | Percent Control NE [5] [%] |
| --- | --- | --- | --- | --- | --- | --- |
| FCCn1cc(-c2ccc(Cl)cc2)cn1 [Compound 2] | 100 | 40 | 0 | 100 | 100 | 100 |
| FCCC1(c2ccccc2)C=NNC1 (stereo not drawn) [Compound 1, 4-(2-fluoroethyl)-4-phenyl-1H-pyrazole] | 100 | 20 | 20 | 0 | 0 | 50 |
| FCCn1cc(-c2cccc(C(F)(F)F)c2)cn1 [Compound 6] | 100 | 0 | 85 | 100 | 0 | 100 |
| FCCn1cc(-c2ccc(OC(F)(F)F)cc2)cn1 [Compound 7] | 100 | 0 | 85 | 100 | 0 | 100 |
| FCCn1cc(-c2cccc(Br)c2)cn1 [Compound 4] | 100 | 7 | 0 | 0 | 100 | 100 |
| FCCn1cc(-c2ccc(Cl)c(Cl)c2)cn1 [Compound 5] | 100 | 0 | 0 | 63 | 100 | 60 |
| FCCn1cc(-c2ccc(C(F)(F)F)cc2)cn1 [Compound 3] | 0 | 100 | 0 | 100 | 0 | 0 |
